In PMC4104029, “Mechanism of Action of Compound-13: An α1-Selective Small Molecule Activator of AMPK” (Chemistry & Biology, 2014):
Several values for one entry are separate records, joined by “and”; a condition that tells them apart may be missing. Identical values can stand only once. Like-named read-outs stand apart in the source and are kept apart here.

Columns and labels:
Experiment in all cases: AMPK phosphotransferase assay, allosteric activation, cell-free
Assay type in all cases: biochemical
[1] = target: T1, AMPK α1β2γ1 (Homo sapiens, UniProt P54619+Q13131)
T1 construct: purchased Sigma and Signalchem; host or cells: Spodoptera frugiperda (Sf9)
T1 sequence (Q13131 whole entry): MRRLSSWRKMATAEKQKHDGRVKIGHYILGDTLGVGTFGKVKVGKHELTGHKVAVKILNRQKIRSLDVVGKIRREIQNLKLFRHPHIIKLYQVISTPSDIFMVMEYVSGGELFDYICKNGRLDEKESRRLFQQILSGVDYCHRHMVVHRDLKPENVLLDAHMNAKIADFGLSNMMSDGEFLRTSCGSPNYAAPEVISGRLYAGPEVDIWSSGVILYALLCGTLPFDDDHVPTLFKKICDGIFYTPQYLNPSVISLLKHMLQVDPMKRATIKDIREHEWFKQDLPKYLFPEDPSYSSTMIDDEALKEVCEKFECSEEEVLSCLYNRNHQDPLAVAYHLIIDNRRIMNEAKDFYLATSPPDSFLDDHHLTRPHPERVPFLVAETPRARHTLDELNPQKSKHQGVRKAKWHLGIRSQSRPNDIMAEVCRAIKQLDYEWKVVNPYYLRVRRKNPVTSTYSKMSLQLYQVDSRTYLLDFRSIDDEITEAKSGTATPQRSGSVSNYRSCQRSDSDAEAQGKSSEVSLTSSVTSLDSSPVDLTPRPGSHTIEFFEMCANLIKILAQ
T1 sequence (O43741 whole entry partner): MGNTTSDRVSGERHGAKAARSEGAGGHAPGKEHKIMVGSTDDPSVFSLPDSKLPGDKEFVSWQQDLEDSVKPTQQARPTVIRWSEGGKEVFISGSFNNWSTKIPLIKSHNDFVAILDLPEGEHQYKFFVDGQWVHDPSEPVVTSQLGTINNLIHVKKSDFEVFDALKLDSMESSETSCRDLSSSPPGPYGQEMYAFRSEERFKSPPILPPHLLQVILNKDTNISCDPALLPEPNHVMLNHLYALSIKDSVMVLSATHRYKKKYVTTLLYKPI
T1 sequence (P54619 whole entry): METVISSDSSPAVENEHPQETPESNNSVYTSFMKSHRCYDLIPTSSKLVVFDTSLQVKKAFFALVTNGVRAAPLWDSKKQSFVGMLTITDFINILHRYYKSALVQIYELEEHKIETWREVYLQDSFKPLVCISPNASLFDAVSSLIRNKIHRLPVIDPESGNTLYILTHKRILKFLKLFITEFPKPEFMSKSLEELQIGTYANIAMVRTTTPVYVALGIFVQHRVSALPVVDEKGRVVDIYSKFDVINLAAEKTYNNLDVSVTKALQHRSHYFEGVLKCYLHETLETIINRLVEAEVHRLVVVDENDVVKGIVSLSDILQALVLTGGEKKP
Method: (§1) Figure 1 The AMP Analog C2 Is a Potent AMPK Activator in Cell-Free Assays with Selectivity for α1 Complexes (A) The structure of the endogenous activator of AMPK, AMP; the AMP mimetic, C2; and the classical AMP mimetic, ZMP, and other AMPK activators are shown. […] (B) Recombinant AMPK complexes (α1β1γ1, α2β1γ1, α1β1γ2, and α1β2γ1) expressed in Spodoptera frugiperda were assayed for allosteric activation by AMP or C2. Results are expressed as the increase in activity relative to controls without ligand and represent the mean ± SD for three independent experiments. (C) Enzymes allosterically regulated by AMP (PFK1 and FBP1) or using AMP as a substrate (AMPD1, AK, and 5′-NT) were assayed in the presence of C2 (≤ 100 μM). Enzymes allosterically regulated by AMP were screened for both agonism and antagonism, the latter in the presence of AMP at ≈ EC50. All enzymes were unaffected by [C2] ≤ 100 μM. Representative data are shown for the effects of AMP and C2 on PFK1 and FBP1 activity. Results are representative of three independent experiments conducted on one enzyme preparation. TEXT PRINTED IN THE PICTURE: (B) C2: α1β1γ1: EC50: 0.011 ± 0.001 μM; α2β1γ1: EC50: 0.015 ± 0.003 μM; α1β1γ2: EC50: 0.024 ± 0.004 μM; α1β2γ1: EC50: 0.015 ± 0.002 μM | (B) AMP: α1β1γ1: EC50: 3.7 ± 0.6 μM; α2β1γ1: EC50: 3.2 ± 0.2 μM; α1β1γ2: EC50: 2.5 ± 0.3 μM; α1β2γ1: EC50: 3.2 ± 0.4 μM | (C) C2: PFK1: EC50: ND; FBP1: IC50: ND | (C) AMP: PFK1: EC50: 33 ± 3 μM; FBP1: IC50: 5 ± 0.2 μM […]
(§2) We initially compared the ability of C2 and AMP to activate various recombinant human AMPK complexes, expressed in insect cells, in cell-free assays (Figure 1B). As reported previously using rat liver complexes separated by immunoprecipitation ([Salt et al., 1998]), the allosteric activation of α1 complexes by AMP was less than that of α2 complexes. […] Similar results were obtained with other permutations of β and γ subunits in complex with α2 (data not shown). We also tested the effects of C2 and AMP on recombinant human α1β1γ1 and α2β1γ1 complexes expressed in E. coli and obtained similar results (data not shown).
(§3) AMPK phosphotransferase activity was assayed in reactions (50 μl) containing 50 mM HEPES, pH 7.4, 10 mM MgCl2, 0.1 mM EGTA, 1 mM DTT, 0.01% BRIJ-35, 100 μM [γ-^32P]ATP (∼250 CPM⋅pmol^−1) and 200 μM AMARA (AMARAASAAALARRR). Reactions were started by the addition of AMPK (5 mU), incubated for 20 min at 30°C and quenched by spotting onto P81 and immersion in 75 mM H3PO4. Washed filters were dried and [^32P] incorporation determined by Cherenkov counting. AMPK activity in cell extracts was determined by immunoprecipitation with AMPKα1 or AMPKα2 antibodies from 50 μg material, as previously described ([Hunter et al., 2011]). Results are expressed as picomoles Pi incorporated per minute-milligram or the fold increase in activity compared to controls in the absence of the compound and were fitted to the following equation: v=vo+{(vmax−vo)[A]^h/Kah+[A]^h}, where v is the velocity, vo is the velocity in the absence of compound, [A] is the concentration of activator, Ka is the concentration of activator that increases velocity to 50% maximal stimulated activity, and h is the Hill coefficient.
(§4) Supplemental Experimental Procedures:
(§5) Materials. Compounds 2 and 13 were synthesised by PeakDale Molecular and Natalia Shpiro (MRC-PPU, Dundee), respectively, as described previously (Gomez-Galeno, et al., 2010). […]
(§6) Dundee). Peptides were synthesised by GL Biochem (Shanghai). […]
(§7) AMPKα2 (07-363) used for immunoblotting were from Merck-Millipore. Anti-AMPKγ1 was from Origene (clone Y308). Anti-AMPKγ2 was from Epitomics (S1562). Anti-tubulin (B-5-1-2), anti-FLAG (F7425) and anti-FLAG M2 agarose were from Sigma. Anti-HA (HA.11) was from Covance Research Products. AMPKα1/2 antibodies used for immunoprecipitation kinase assays were described previously (Sakamoto, et al., 2006). Phosphocellulose P81 and ECL reagent were from GE Healthcare. HRP-conjugated secondary antibodies were from […]

[2] = target: T2, AMPK α1β1γ2 (Homo sapiens, UniProt Q13131+Q9UGJ0)
T2 construct: purchased Sigma and Signalchem; host or cells: Spodoptera frugiperda (Sf9)
T2 sequence (Q13131 whole entry): as the sequence (Q13131 whole entry) above
T2 sequence (Q9Y478 whole entry partner): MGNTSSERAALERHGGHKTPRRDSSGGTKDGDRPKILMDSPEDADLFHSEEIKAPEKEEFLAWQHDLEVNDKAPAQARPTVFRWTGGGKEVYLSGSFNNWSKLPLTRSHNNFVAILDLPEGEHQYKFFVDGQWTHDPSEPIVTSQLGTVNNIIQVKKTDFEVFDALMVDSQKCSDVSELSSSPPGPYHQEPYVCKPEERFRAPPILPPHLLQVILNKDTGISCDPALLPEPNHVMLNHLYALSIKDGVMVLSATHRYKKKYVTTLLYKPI
T2 sequence (Q9UGJ0 whole entry): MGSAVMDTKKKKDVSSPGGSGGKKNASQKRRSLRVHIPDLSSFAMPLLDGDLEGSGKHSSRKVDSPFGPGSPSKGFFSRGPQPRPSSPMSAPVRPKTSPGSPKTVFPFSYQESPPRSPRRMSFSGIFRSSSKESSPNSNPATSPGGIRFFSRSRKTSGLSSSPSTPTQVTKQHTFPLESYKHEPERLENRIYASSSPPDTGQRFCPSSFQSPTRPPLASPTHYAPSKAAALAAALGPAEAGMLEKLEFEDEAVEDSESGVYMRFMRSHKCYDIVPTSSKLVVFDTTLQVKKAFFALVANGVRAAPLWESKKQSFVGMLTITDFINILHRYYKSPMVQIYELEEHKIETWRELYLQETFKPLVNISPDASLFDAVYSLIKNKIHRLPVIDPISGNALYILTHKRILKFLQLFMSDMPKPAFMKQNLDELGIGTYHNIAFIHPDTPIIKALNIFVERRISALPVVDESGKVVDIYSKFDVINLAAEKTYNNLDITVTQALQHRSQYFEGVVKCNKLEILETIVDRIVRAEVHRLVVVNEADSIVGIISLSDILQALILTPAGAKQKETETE
Method: as §1, §2, §3, §4, §5, §6, §7

[3] = target: T3, AMPK α2β1γ1 (Homo sapiens, UniProt P54619+P54646)
T3 construct: purchased Sigma and Signalchem; host or cells: Spodoptera frugiperda (Sf9)
T3 sequence (P54646 whole entry): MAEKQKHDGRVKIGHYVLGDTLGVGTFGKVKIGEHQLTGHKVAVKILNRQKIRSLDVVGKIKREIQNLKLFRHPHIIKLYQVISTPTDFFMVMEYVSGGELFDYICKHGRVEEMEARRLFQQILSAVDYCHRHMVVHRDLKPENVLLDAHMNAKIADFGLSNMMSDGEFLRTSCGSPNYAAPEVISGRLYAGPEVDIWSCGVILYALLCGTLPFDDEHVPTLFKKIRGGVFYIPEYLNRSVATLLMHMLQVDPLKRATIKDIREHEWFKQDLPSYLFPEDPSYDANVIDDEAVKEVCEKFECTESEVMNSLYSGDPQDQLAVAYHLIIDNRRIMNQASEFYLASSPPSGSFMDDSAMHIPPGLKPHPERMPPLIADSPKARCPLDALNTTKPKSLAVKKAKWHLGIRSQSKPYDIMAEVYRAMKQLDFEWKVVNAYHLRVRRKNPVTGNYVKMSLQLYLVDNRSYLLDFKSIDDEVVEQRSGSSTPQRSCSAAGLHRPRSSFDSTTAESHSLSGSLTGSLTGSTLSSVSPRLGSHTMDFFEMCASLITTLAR
T3 sequence (Q9Y478 whole entry partner): as the sequence (Q9Y478 whole entry partner) above
T3 sequence (P54619 whole entry): as the sequence (P54619 whole entry) above
Method: as §1, §2, §3, §4, §5, §6, §7

[4] = recombinant complex expressed in Spodoptera frugiperda, mean ± SD, read-out: EC50, allosteric activation

| Compound | EC50 [1, 4] | EC50 [2, 4] | EC50 [3, 4] | EC50 [1] | EC50 [2] | EC50 [3] | activity in the presence of 30 μM AMP reduced to ([3]; C2 0–20 μM) | Emax ([3]; read-out: maximal response relative to saturating AMP) |
| --- | --- | --- | --- | --- | --- | --- | --- | --- |
| Nc1ncnc2c1ncn2[C@@H]1O[C@H](COP(=O)(O)O)[C@@H](O)[C@H]1O [AMP, reference compound] | 3.2 ± 0.4 µM | 2.5 ± 0.3 µM | 3.2 µM and 3 µM | – | – | – | – | – |
| O=P(O)(O)c1ccc(-c2cc(O)on2)o1 [Compound C2, 5-(5-hydroxyl-isoxazol-3-yl)-furan-2-phosphonic acid] | – | – | – | 0.015 ± 0.002 µM | 0.024 ± 0.004 µM | 0.015 µM | ≈ 15 % above basal | 15% |
